Experimental data published in patent US20220023269A1, “Methods Of Treating Diabetes In Severe Insulin-Resistant Diabetic Subjects” (Balticgruppen Bio AB, priority 2018, published 2022).

Columns and labels:
AMPK in HeLa cells = test: AMPK activation assay in HeLa cells (LKB1 null); assay type: cell-based, human; conditions: LKB1 null cells; 2.5, 5 or 10 μM, 4 hours
Experimental: (§1) All cell lines were lysed in 0.1 M Tris-HCl, pH 6.8, 2% SDS, 10 mM sodium fluoride (SIGMA #S7920), 10 mM β-glycerophosphate (SIGMA #G6376), and 1 mM sodium vanadate (SIGMA #72060) and supernatant collected after 1 minute at 14,000 rpm. Islets (human and mouse) were lysed in 0.1 M Tris-HCl, pH 6.8, 2% SDS, protease inhibitor (Roche #04 693 124 001) and phosphatase inhibitor (Roche #04 906 837 001). Right calf muscle, heart, iWAT, and interscapular BAT was crushed in a pestle using liquid nitrogen and homogenised in ice cold RIPA buffer (150 mM sodium chloride (SIGMA #S7653), 1.0% NP40 (USB), 0.5% sodium deoxycholate (SIGMA #D6750), 0.1% SDS, 50 mM Tris pH 8.0, 20 mM sodium pyrophosphate (SIGMA #71515), 10 mM sodium fluoride, 10 mM β-glycerolphosphate, 1 mM sodium vanadate and protease inhibitor cocktail (Roche #04693124001), 1 tablet/10 ml lysis buffer). The supernatant was collected after 2 min at 14,000 rpm. This procedure was repeated until all fat was eliminated and the supernatant was clear, at 4° C. Samples were analysed on 4-15% polyacrylamide gels. Values were normalised toward AMPKα, β-Actin, GAPDH or the respective non-phosphorylated counterpart.
(§2) Table 3 contains origin of cell lines, growth conditions and settings for activation of AMPK via the test material. […]

[1] = test system: AMPK in human skeletal myotubes; test: AMPK activation assay in human skeletal myotubes; assay type: cell-based; conditions: cells preferentially expressing β2 subunit
Experimental: as §1, §2

[2] = test system: AMPK in human hepatocytes; test: AMPK activation assay in human hepatocytes; assay type: cell-based; conditions: cells preferentially expressing β2 subunit
Experimental: as §1, §2

hIAPPtg DIO mice = test: Prevention of diabetes in hIAPPtg DIO mice (oral gavage, 6 w); assay type: in vivo; conditions: 100 mg/kg/day gavage, 6 w HFD
rat skeletal L6 myotubes = test: Glucose uptake in L6 myotubes; assay type: cell-based; conditions: 2.5, 5, 10 μM; absence of insulin; siAMPKα1/α2
Experimental: Rat L6 skeletal muscle cells grown in high-glucose (4.5 g/L) Dulbecco's Modified Eagle Medium (Gibco #31966), 10% fetal bovine serum (Gibco #10500-064) and 25 μg/ml gentamicin (Gibco 1 #5750) were induced to differentiate, by reducing the serum concentration to 2% for 14 days by which time the majority of myoblast had differentiated to myotubes. Myotubes were rinsed in serum-free low-glucose (1 g/L) DMEM (Gibco a #21885), treated with vehicle control, 2.5, 5 and 10 μM test material (serum-free low-glucose DMEM, 0.1% DMSO) for 2 hours, rinsed in serum-free DMEM w/o glucose (Gibco #11966) and thereafter incubated with the same for 20 minutes before addition of 1 μCi 2-Deoxy-D-glucose (2-DG) (Perkin Elmer #NET549A250UC) for 10 minutes. The cells were rinsed 3 times in serum-free DMEM w/o glucose and lysed in 1 ml RIPA buffer (150 mM Sodiumchloride, 1% NP40, 0.5% Sodiumdeoxycholate, 0.1% SDS, 50 mM Tris pH8.0). 300 μl were added to 4 ml liquid scintillation cocktail (Perkin Elmer #1200-437) before counted, 1 minute, in a Wallac 1414 beta counter. CPM was converted to arbitrary units by setting vehicle control as 1. […]

With `O=C(Nc1nc(=O)n(Cc2ccc(Cl)cc2)s1)c1ccc(Cl)cc1` [test material, 4-chloro-N-[2-[(4-chlorophenyl)methyl]-3-oxo-1,2,4-thiadiazol-5-yl]benzamide] the “basal levels of pAMPK and pACC” value (AMPK in HeLa cells) was “failed to increase”, the pAMPK [1] was “increased pAMPK” and the pAMPK [2] was “increased pAMPK”. For the same compound, the “HOMA-IR and Matsuda index (systemic insulin resistance)” value (hIAPPtg DIO mice) was “suppressed the development of systemic insulin resistance”, the “i.p. and oral glucose-tolerance tests” value (hIAPPtg DIO mice) was “prevented the development of glucose intolerance and compensatory hyperinsulinemia” and the “6 h fasted blood glucose” value (hIAPPtg DIO mice; vs vehicle) was “averted the increase”. For the same compound, the “6 h fasted plasma insulin levels” value (hIAPPtg DIO mice; vs vehicle) was “averted the increase” and the “2-Deoxy-D-glucose (2-DG) uptake” value (rat skeletal L6 myotubes) was “increased 2-Deoxy-D-glucose (2-DG) uptake in a dose- and AMPK-dependent manner”.
